In PubChem BioAssay AID1963980 (Molecular Pharmacology Branch, DTP, NCI, 2024):

System: 475296-252-R-J1-PDC spheroid viability
Test: Anticancer human tumor 475296-252-R-J1-PDC patient-derived rectal carcinoma cell line growth inhibition [PI3K]
Conditions: spheroids with HUVEC and MSC; for viability, T/C: stronger effect = lower value
From the text: Combinatorial screen of targeted agents with the PI3K inhibitors inavolisib, alpelisib, duvelisib, and copanlisib in multi-cell type tumor spheroids
A high-throughput screen of multi-cell type tumor spheroids was designed to identify active combinations of targeted small molecules and PI3K pathway inhibitors. Complex spheroids include a stromal component modeled by human endothelial cells (HUVEC) and fibroblasts modeled by human mesenchymal stem cells (MSCs). The concentration ranges selected for each drug and investigational agent were based upon clinically achievable concentrations if the clinical Cmax of the agent was known.
Compounds. The drugs and investigational agents: inavolisib (NSC800729), alpelisib (NSC765974), duvelisib (NSC772469), copanlisib (NSC816437), ipatasertib (NSC767898), afuresertib (NSC778305), talazoparib (NSC767125), sapanisertib (NSC764658), selumetinib (NSC741078), tovorafenib (DAY101, NSC766906), vemurafenib (NSC761431), ravoxertinib (NSC781343), sotorasib (NSC818433), MRTX1133 (NSC 836407), abemaciclib (NSC 768073), palbociclib (NSC758247), venetoclax (NSC 766270), SY5609 (NSC837396), enzalutamide (NSC755605), and darolutamide (NSC825331), were obtained from the National Cancer Institute (NCI) Developmental Therapeutics Program Chemical Repository. The FDA-approved anticancer drug set is available from the NCI Developmental Therapeutics Program. […] The stock solutions were prepared in dimethyl sulfoxide (DMSO, Sigma-Aldrich, St. Louis, MO, cat. D2650) at 800-fold the tested concentration and stored at -70 degrees C prior to their use. All drugs and investigational agents were tested over a range starting from a high concentration at or near the clinical Cmax and decreasing in half-log increments. If the clinical Cmax for an agent had not been determined, the highest concentration tested was 10 microM.
Cell Culture. All cells were maintained in an incubator at 37 degrees C and 5% CO2 with 95% humidity. The PDC lines were cultured according to standard operating procedures established by the NCI PDMR (https://pdmr.cancer.gov/sops/default.htm). All PDCs were thawed and cultured in Matrigel-coated flasks prepared with a working solution of 1X Ham's F-12 nutrient mix, without supplementation (Invitrogen, Waltham, MA, cat. 11765054), 100 U/mL penicillin-streptomycin (Invitrogen, cat. 15140122), and 2.5% Matrigel (Corning Inc., Corning, NY, cat. 354248) for the first three passages. The 354836-022-R-J1-PDC, 475296-252-R-J1-PDC, and 997726-040-R-J2-PDC lines were cultured in 6A media, which includes advanced DMEM/F-12 (Thermo Fisher Scientific, cat. 12634028), 10 mM HEPES (Thermo Fisher Scientific, cat. 15630080), 1X GlutaMAX supplement (Thermo Fisher Scientific, cat. 35050061), 0.1 mg/mL primocin (InvivoGen, San Diego, CA, cat. ant-pm-2), 10% defined fetal bovine serum, heat inactivated (HyClone Laboratories Inc., Logan, UT, cat. SH30070.03HI), 50% L-WRN conditioned media (ATCC, cat. CRL-3276), 1.25 mM N-Acetyl-L-cysteine (Sigma-Aldrich, cat. A9165), 10 mM nicotinamide (Sigma-Aldrich, cat. N0636), 1X B-27 supplement (Thermo Fisher Scientific, cat. 17504044), 1X N-2 supplement (Thermo Fisher Scientific, cat. 17502048), and 10 microM Y-27632 dihydrochloride (Tocris Bioscience, Bristol, United Kingdom, cat. 1254). The 624824-186-R-J2-PDC line was cultured in 6C/Colon 1B media, which includes all 6A media components plus 50 ng/mL human EGF recombinant protein (Thermo Fisher Scientific, cat. PHG0311). […]
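Further: spheroids exposed to agents for seven days before readout.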

Cn1cnc2c(F)c(Nc3ccc(Br)cc3Cl)c(C(=O)NOCCO)cc21 + CC(Nc1ncnc2nc[nH]c12)c1cc2cccc(Cl)c2c(=O)n1-c1ccccc1
IC50 (curve of first compound, second compound 0.0316 µM): > 3000 nM
IC50 (curve of first compound, second compound 0.1 µM): > 3000 nM
IC50 (curve of first compound, second compound 0.316 µM): > 3000 nM
IC50 (curve of first compound, second compound 1 µM): 2910 nM
IC50 (curve of first compound, second compound 3.16 µM): 2120 nM
IC50 (curve of first compound, second compound 10 µM): 1210 nM
viability, T/C (second compound 0.0316 µM, first compound 0.00949 µM): 84.4%
viability, T/C (second compound 0.0316 µM, first compound 0.03 µM): 84.9%
viability, T/C (second compound 0.0316 µM, first compound 0.0949 µM): 81.6%
viability, T/C (second compound 0.0316 µM, first compound 0.3 µM): 70.5%
viability, T/C (second compound 0.0316 µM, first compound 0.949 µM): 63.1%
viability, T/C (second compound 0.0316 µM, first compound 3 µM): 53.9%
viability, T/C (second compound 0.1 µM, first compound 0.00949 µM): 95.8%
viability, T/C (second compound 0.1 µM, first compound 0.03 µM): 85.5%
viability, T/C (second compound 0.1 µM, first compound 0.0949 µM): 93.3%
viability, T/C (second compound 0.1 µM, first compound 0.3 µM): 73.5%
viability, T/C (second compound 0.1 µM, first compound 0.949 µM): 66.6%
viability, T/C (second compound 0.1 µM, first compound 3 µM): 55.7%
viability, T/C (second compound 0.316 µM, first compound 0.00949 µM): 90.7%
viability, T/C (second compound 0.316 µM, first compound 0.03 µM): 92.9%
viability, T/C (second compound 0.316 µM, first compound 0.0949 µM): 86.5%
viability, T/C (second compound 0.316 µM, first compound 0.3 µM): 74.8%
viability, T/C (second compound 0.316 µM, first compound 0.949 µM): 76.3%
viability, T/C (second compound 0.316 µM, first compound 3 µM): 51.5%
viability, T/C (second compound 1 µM, first compound 0.00949 µM): 95.7%
viability, T/C (second compound 1 µM, first compound 0.03 µM): 95.7%
viability, T/C (second compound 1 µM, first compound 0.0949 µM): 81.4%
viability, T/C (second compound 1 µM, first compound 0.3 µM): 68.2%
viability, T/C (second compound 1 µM, first compound 0.949 µM): 67.3%
viability, T/C (second compound 1 µM, first compound 3 µM): 48.1%
viability, T/C (second compound 3.16 µM, first compound 0.00949 µM): 94.2%
viability, T/C (second compound 3.16 µM, first compound 0.03 µM): 92.9%
viability, T/C (second compound 3.16 µM, first compound 0.0949 µM): 76%
viability, T/C (second compound 3.16 µM, first compound 0.3 µM): 68.3%
viability, T/C (second compound 3.16 µM, first compound 0.949 µM): 62.5%
viability, T/C (second compound 3.16 µM, first compound 3 µM): 44.9%
viability, T/C (second compound 10 µM, first compound 0.00949 µM): 100%
viability, T/C (second compound 10 µM, first compound 0.03 µM): 95%
viability, T/C (second compound 10 µM, first compound 0.0949 µM): 73.2%
viability, T/C (second compound 10 µM, first compound 0.3 µM): 59.9%
viability, T/C (second compound 10 µM, first compound 0.949 µM): 59.6%
viability, T/C (second compound 10 µM, first compound 3 µM): 38.3%

Cc1nc(NC(=O)N2CCCC2C(N)=O)sc1-c1ccnc(C(C)(C)C(F)(F)F)c1 (centres undefined)
viability, T/C (compound 0.0316 µM): 98.6% [middle of 8 runs]
viability, T/C (compound 0.1 µM): 97.1% [middle of 8 runs]
viability, T/C (compound 0.316 µM): 97% [middle of 8 runs]
viability, T/C (compound 1 µM): 99.7% [middle of 8 runs]
viability, T/C (compound 3.16 µM): 90.8% [middle of 8 runs]
viability, T/C (compound 10 µM): 81.6% [middle of 8 runs]
IC50 (compound alone, run of 06/12/2023): > 10000 nM
